Data reported in patent publication US11229208B2, “Pesticidally active bi- or tricyclic heterocycles with sulfur containing substituents” (priority 2013, dated 2022).
“And” between values parts separate entries of the source, which are not always exact repeats. Equal values may be shown once. Read-outs that look alike come from different tables or passages of the source. One block for each molecule: values may come before it.

Legend:
[1] = test system: Myzus persicae (Green Peach Aphid); test: Myzus persicae systemic test, roots of infested pea seedlings in test solution; type: in vivo; settings: 144 h, test rate 24 ppm, 6 days after placing seedlings in test solutions
Method: Example B6: Myzus persicae (Green Peach Aphid)
Roots of pea seedlings infested with an aphid population of mixed ages were placed directly in the aqueous test solutions prepared from 10,000 DMSO stock solutions. The samples were assessed for mortality 6 days after placing seedlings in test solutions.

[2] = test system: Plutella xylostella (Diamond Back Moth); test: Plutella xylostella, treated artificial diet, L2 larvae; type: in vivo; settings: 120 h, application rate 200 ppm, 5 days after infestation
Method: Example B3: Plutella xylostella (Diamond Back Moth)
(§1) 24-well microtiter plates with artificial diet were treated with aqueous test solutions prepared from 10,000 ppm DMSO stock solutions by pipetting. After drying, the plates were infested with L2 larvae (10 to 15 per well). The samples were assessed for mortality 5 days after infestation.

[3] = test system: Diabrotica balteata (Corn Root Worm); test: Diabrotica balteata, treated artificial diet, L2 larvae; type: in vivo; settings: 120 h, read-out: effect in at least one of the two categories (mortality or growth inhibition)
Method: Example B4: Diabrotica balteata (Corn Root Worm)
as §1, with “(6” for “(10”, “10” for “15”, “mortality and growth inhibition in comparison to untreated samples” for “mortality”
The following compounds gave an effect of at least 80% in at least one of the two categories (mortality or growth inhibition) at an application rate of 200 ppm: […]

[4] = test system: Myzus persicae (Green Peach Aphid); test: Myzus persicae, sprayed sunflower leaf discs, mixed-age population; type: in vivo; settings: foliar, 144 h, application rate 200 ppm, 6 days after infestation
Method: Example B5: Myzus persicae (Green Peach Aphid)
Sunflower leaf discs were placed on agar in a 24-well microtiter plate and sprayed with aqueous test solutions prepared from 10,000 ppm DMSO stock solutions. After drying, the leaf discs were infested with an aphid population of mixed ages. The samples were assessed for mortality 6 days after infestation.

[5] = test system: Myzus persicae (Green Peach Aphid); test: Myzus persicae, sucrose solution feeding through Parafilm; type: in vivo; settings: 120 h, test rate 12 ppm, 5 days after infestation
Method: Example B7: Myzus persicae (Green Peach Aphid)
Test compounds from 10,000 ppm DMSO stock solutions were applied by pipette into 24-well microtiter plates and mixed with sucrose solution. The plates were closed with a stretched Parafilm. A plastic stencil with 24 holes was placed onto the plate and infested pea seedlings were placed directly on the Parafilm. The infested plate was closed with a gel blotting paper and another plastic stencil and then turned upside down. The samples were assessed for mortality 5 days after infestation.

[6] = test system: Tetranychus urticae (Two-Spotted Spider Mite); test: Tetranychus urticae, sprayed bean leaf discs, mixed-age mite population; type: in vivo; settings: foliar, 192 h, read-out: mortality on mixed population (mobile stages)
Method: Example B11: Tetranychus urticae (Two-Spotted Spider Mite)
Bean leaf discs on agar in 24-well microtiter plates were sprayed with aqueous test solutions prepared from 10,000 ppm DMSO stock solutions. After drying the leaf discs were infested with a mite population of mixed ages. The samples were assessed for mortality on mixed population (mobile stages) 8 days after infestation.

[7] = test system: Spodoptera littoralis (Egyptian Cotton Leaf Worm); test: Spodoptera littoralis, sprayed cotton leaf discs, L1 larvae; type: in vivo; settings: foliar, 72 h, read-out: mortality (control)
Method: Example B2: Spodoptera littoralis (Egyptian Cotton Leaf Worm)
Cotton leaf discs were placed on agar in 24-well microtiter plates and sprayed with aqueous test solutions prepared from 10,000 ppm DMSO stock solutions. After drying the leaf discs were infested with five L1 larvae. The samples were assessed for mortality 3 days after infestation.

[8] = test system: Spodoptera littoralis (Egyptian Cotton Leaf Worm); test: Spodoptera littoralis systemic test, lettuce grown on treated agar, infested with eggs; type: in vivo; settings: 144 h, test rate 12.5 ppm, assessed 6 days after infestation, in comparison to untreated samples, read-out: effect in at least one of the three categories (mortality, anti-feedancy, or growth inhibition)
From the text: Example B1: Spodoptera littoralis (Egyptian Cotton Leaf Worm)
Test compounds were applied by pipette from 10,000 ppm DMSO stock solutions into 24-well plates and mixed with agar. Lettuce seeds were placed on the agar and the multi well plate was closed by another plate which contains also agar. After 7 days the roots have absorbed the compound and the lettuce has grown into the lid plate. The lettuce leafs were now cut off into the lid plate. Spodoptera eggs were pipetted through a plastic stencil on a humid gel blotting paper and the plate closed with it. The samples were assessed for mortality, anti-feedant effect and growth inhibition in comparison to untreated samples 6 days after infestation.
The following compounds gave an effect of at least 80% in at least one of the three categories (mortality, anti-feedancy, or growth inhibition) at a test rate of 12.5 ppm: […]

[9] = test system: Bemisia tabaci (Cotton White Fly); test: Bemisia tabaci, sprayed cotton leaf discs, adult white flies; type: in vivo; settings: foliar, 144 h, application rate 200 ppm, 6 days after incubation
Method: Example B10: Bemisia tabaci (Cotton White Fly)
Cotton leaf discs were placed on agar in 24-well microtiter plates and sprayed with aqueous test solutions prepared from 10,000 ppm DMSO stock solutions. After drying the leaf discs were infested with adult white flies. The samples were checked for mortality 6 days after incubation.

[10] = application rate 200 ppm, 5 days after infestation, in comparison to untreated samples
[11] = application rate 200 ppm, 3 days after infestation

melting point: 206 °C
Structure (SMILES): CC1Cc2c(C(F)(F)F)ccc(-c3nc4cc(C(F)(F)F)cnc4n3C)c2S1(=O)=O (stereo not shown)

melting point: 188 to 190 °C
Structure (SMILES): CCS(=O)(=O)c1nc(C(F)(F)F)ccc1-c1cn2ccc(C(F)(F)F)cc2n1

melting point: 126 to 128 °C
Structure (SMILES): CCS(=O)(=O)c1nc(C(F)(F)F)sc1-c1cn2ccc(C(F)(F)F)cc2n1

melting point: 144 to 146 °C
Structure (SMILES): CCS(=O)(=O)c1nsnc1-c1nc2cc(C(F)(F)F)cnc2n1C

melting point: 162 to 165 °C
Structure (SMILES): CCS(=O)(=O)c1cc(C(F)(F)F)cnc1-c1nc2nc(C(F)(F)F)cnc2n1C

melting point: 146 to 148 °C
Structure (SMILES): CCS(=O)(=O)c1cc(OC(F)F)cnc1-c1nc2cc(C(F)(F)F)ncc2n1C

melting point: 172 to 174 °C
Structure (SMILES): CCS(=O)(=O)c1cc(C(F)(F)F)nnc1-c1nc2cc(C(F)(F)F)cnc2n1C

melting point: 149 to 150 °C and 149 to 156 °C
Structure (SMILES): CCSc1cc(C(F)(F)F)nnc1-c1nc2cc(C(F)(F)F)cnc2n1C

melting point: 197 to 199 °C
Structure (SMILES): CCS(=O)(=O)c1nc(C(F)(F)F)ccc1-c1nc2cc3nc(C(F)(F)F)n(C)c3nc2n1C

melting point: 156 to 158 °C
Structure (SMILES): CCSc1cc(C(F)(F)F)cnc1-c1nc2cc(Cl)nnc2n1C

Second part, the molecule before the results:

Structure (SMILES): CCS(=O)(=O)c1cc(C(F)(F)F)cnc1-c1nc2cc(C(F)(F)F)ncn2n1 [Compound V16.03, 2-[3-ethylsulfonyl-5-(trifluoromethyl)-2-pyridyl]-7-(trifluoromethyl) [1,2,4]triazolo[1,5-c]pyrimidine]
mortality at 24 ppm [1]: ≥ 80%
mortality at 200 ppm [2]: ≥ 80%
percent effect (mortality or growth inhibition) at 200 ppm [3, 10]: ≥ 80%
mortality at 200 ppm [4]: ≥ 80%

Structure (SMILES): CCS(=O)(=O)c1nc(C(F)(F)F)sc1-c1nc2cc(C(F)(F)F)ncc2n1C [Compound V14.05, 4-Ethylsulfonyl-5-[3-methyl-6-(trifluoromethyl)imidazo[4,5-c]pyridin-2-yl]-2-(trifluoromethyl)thiazole]
mortality at 24 ppm [1]: ≥ 80%
mortality at 12 ppm [5]: ≥ 80%
mortality at 200 ppm [4]: ≥ 80%

Structure (SMILES): CCS(=O)(=O)c1cc(C(F)(F)F)cnc1-c1nc2cc(Cl)nnc2n1C [Compound V12.17, 3-chloro-6-[3-ethylsulfonyl-5-(trifluoromethyl)-2-pyridyl]-7-methyl-imidazo[4,5-c]pyridazine]
mortality at 24 ppm [1]: ≥ 80%
mortality at 12 ppm [5]: ≥ 80%
mortality at 200 ppm [4]: ≥ 80%

Structure (SMILES): CCS(=O)(=O)c1cc(C(F)(F)F)cnc1-c1cn2cnc(C(F)(F)F)cc2n1 [Compound V16.02, 2-[3-ethylsulfonyl-5-(trifluoromethyl)-2-pyridyl]-7-(trifluoromethyl)imidazo[1,2-c]pyrimidine]
mortality at 200 ppm [2]: ≥ 80%
mortality at 200 ppm ([6]; application rate 200 ppm, 8 days after infestation): ≥ 80%
percent effect (mortality or growth inhibition) at 200 ppm [3, 10]: ≥ 80%
mortality at 200 ppm [7, 11]: ≥ 80%
percent effect (mortality, anti-feedancy or growth inhibition) at 12.5 ppm [8]: ≥ 80%
mortality at 200 ppm [4]: ≥ 80%

Structure (SMILES): CCS(=O)(=O)c1cc(C(F)(F)F)cnc1-c1nc2cc(C(F)(F)F)ncn2c1C [Compound V16.01, 2-[3-ethylsulfonyl-5-(trifluoromethyl)-2-pyridyl]-3-methyl-7-(trifluoromethyl)imidazo[1,2-c]pyrimidine]
mortality at 200 ppm [2]: ≥ 80%
mortality at 12 ppm [5]: ≥ 80%
mortality at 200 ppm [7, 11]: ≥ 80%
percent effect (mortality, anti-feedancy or growth inhibition) at 12.5 ppm [8]: ≥ 80%
mortality at 200 ppm [4]: ≥ 80%

Structure (SMILES): CCS(=O)(=O)c1scnc1-c1nc2cc(C(F)(F)F)ncc2n1C [Compound V13.05, 5-ethylsulfonyl-4-[3-methyl-6-(trifluoromethyl)imidazo[4,5-c]pyridin-2-yl]thiazole]
mortality at 200 ppm [2]: ≥ 80%
mortality at 200 ppm [9]: ≥ 80%
percent effect (mortality or growth inhibition) at 200 ppm [3, 10]: ≥ 80%

Structure (SMILES): CCS(=O)(=O)c1cc(C(F)(F)F)cnc1-c1nc2cc(Br)ncc2n1C [Compound V12.20, 6-bromo-2-[3-ethylsulfonyl-5-(trifluoromethyl)-2-pyridyl]-3-methyl-imidazo[4,5-c]pyridine]
mortality at 24 ppm [1]: ≥ 80%
mortality at 12 ppm [5]: ≥ 80%
mortality at 200 ppm [9]: ≥ 80%
percent effect (mortality or growth inhibition) at 200 ppm [3, 10]: ≥ 80%
mortality at 200 ppm [7, 11]: ≥ 80%
mortality at 200 ppm [4]: ≥ 80%

Structure (SMILES): Cn1c(-c2ncc(C(F)(F)F)cc2S(C)(=O)=O)nc2cc(C(F)(F)F)ncc21 [Compound V12.18, 3-methyl-2-[3-methylsulfonyl-5-(trifluoromethyl)-2-pyridyl]-6-(trifluoromethyl)imidazo[4,5-c]pyridine]
mortality at 200 ppm [6]: ≥ 80%
percent effect (mortality or growth inhibition) at 200 ppm [3]: ≥ 80%
mortality at 200 ppm [7]: ≥ 80%
